Reference: patent US20080194585A1, “Fungicidal Pyrazine Derivatives” (priority 2005, published 2008)
Marks after values point to notes of the source that are not given here.

What was measured:
Septoria nodorum = test: Test H: wheat glum blotch, preventive spray on wheat seedlings
Experimental: (the causal agent of wheat glum blotch) and incubated in a saturated atmosphere at 20° C. for 48 h, and then moved to a growth chamber at 22° C. for 5 days, after which disease ratings were made.

[1] = test system: Puccinia recondita f. sp. tritici; test: Test K: wheat leaf rust, preventive spray on wheat seedlings
Septoria tritici = test: Test J: wheat leaf blotch, preventive spray on wheat seedlings; type: in vivo
Excerpt: A dash (-) indicates no test results.

Botrytis cinerea = test: Test E: tomato botrytis, preventive spray on tomato seedlings
Rhizoctonia oryzae = test: Test G: turf brown patch, preventive spray on creeping bent grass seedlings
Experimental: (the causal agent of turf brown patch) and incubated in a saturated atmosphere at 27° C. for 24 h, and then moved to a growth chamber at 27° C. for 5 days, after which disease ratings were made.

Plasmopara viticola = test: Test D: grape downy mildew, spray after inoculation of grape seedlings; type: in vivo
Excerpt: Upon removal, disease ratings were made. […] A dash (-) indicates no test results.

[2] = test system: Erysiphe graminis f. sp. tritici; test: Test L: wheat powdery mildew, preventive spray on wheat seedlings
Sclerotinia sclerotiorum = test: Test C: cucumber white mold, preventive spray on cucumber seedlings
Pythium aphanidermatum = test: Test A: bluegrass pythium blight, preventive spray on bluegrass seedlings
[3] = test system: Colletotrichum orbiculare; test: Test B: cucumber Colletotrichum anthracnose, preventive spray on cucumber seedlings
Phytophthora infestans = test: whole plant or invertebrate; type: in vivo

Row | Structure (SMILES) | Test H disease control rating (Septoria nodorum; 200 ppm) | Test K disease control rating ([1]; 200 ppm) | Test J disease control rating (Septoria tritici; 200 ppm) | Test E disease control rating (Botrytis cinerea; 200 ppm) | Test G disease control rating (Rhizoctonia oryzae; 200 ppm) | Test D disease control rating (Plasmopara viticola; 200 ppm) | Test L disease control rating ([2]; 200 ppm) | Test C disease control rating (Sclerotinia sclerotiorum; 200 ppm) | Test A disease control rating (Pythium aphanidermatum; 200 ppm) | Test B disease control rating ([3]; 200 ppm) | Test F disease control rating (Phytophthora infestans; 200 ppm) | further results
1 | CCC(C)n1c(-c2c(F)cccc2F)c(Cl)nc(-n2cncn2)c1=O (stereo not drawn) [compound 32] | 100% | 100% | 32% | 100% | 92% | 15% | 0% | 95% | 0% | 0% | 0% | –
2 | CC(C)n1c(-c2c(F)cccc2F)c(Cl)nc(-n2cncn2)c1=O [compound 33] | 100% | 100% | 100% | 100% | 100% | 34% | 0% | 16% | 0% | 0% | 0% | –
3 | CCCn1c(-c2c(F)cccc2F)c(Cl)nc(-n2cncn2)c1=O [compound 34] | 100% | 99% | 97% | 100% | 100% | 10% | 89% | 16% | 0% | 0% | 26% | –
4 | CC(C)CCn1c(-c2c(F)cccc2F)c(Cl)nc(-n2cccn2)c1=O [compound 35] | 100% | 88% | 100% | 100% | 90% | 5% | 97% | 0% | 0% | 0% | 0% | –
5 | C=CCn1c(-c2c(F)cccc2F)c(Cl)nc(-n2cccn2)c1=O [compound 58] | 100% | 100% | 98% | 100% | 92% | 47% | 99% | 0% | 0% | 99% | 0% | –
6 | CC(C)Cn1c(-c2c(F)cccc2F)c(Cl)nc(-c2ccncc2)c1=O [compound 84] | – | – | – | – | – | – | – | – | – | – | – | Test H disease control rating (Septoria nodorum; 40 ppm (*)): 0* %; Test K disease control rating ([1]; 40 ppm (*)): 0* %; Test J disease control rating (Septoria tritici; 40 ppm (*)): 20* %; Test E disease control rating (Botrytis cinerea; 40 ppm (*)): 0* %; Test G disease control rating (Rhizoctonia oryzae; 40 ppm (*)): 0* %; Test D disease control rating (Plasmopara viticola; 40 ppm (*)): 5* %; Test L disease control rating ([2]; 40 ppm (*)): 0* %; Test C disease control rating (Sclerotinia sclerotiorum; 40 ppm (*)): 0* %; Test A disease control rating (Pythium aphanidermatum; 40 ppm (*)): 0* %; Test B disease control rating ([3]; 40 ppm (*)): 0* %; Test F disease control rating (Phytophthora infestans; 40 ppm (*)): 0* %
7 | COCCn1c(-c2c(F)cccc2F)c(Cl)nc(-n2cccn2)c1=O [compound 95] | 100% | 94% | 95% | 99% | 68% | 92% | 0% | 0% | 0% | 0% | 0% | –
8 | CC(C)Cn1c(-c2c(F)cccc2F)c(Cl)nc(-c2nccs2)c1=O [compound 101] | – | – | – | – | – | 15% | – | 0% | 0% | – | 0% | Test H disease control rating (Septoria nodorum; 40 ppm (*)): 0* %; Test K disease control rating ([1]; 40 ppm (*)): 0* %; Test J disease control rating (Septoria tritici; 40 ppm (*)): 53* %; Test E disease control rating (Botrytis cinerea; 40 ppm (*)): 0* %; Test G disease control rating (Rhizoctonia oryzae; 40 ppm (*)): 0* %; Test L disease control rating ([2]; 40 ppm (*)): 0* %; Test B disease control rating ([3]; 40 ppm (*)): 0* %
9 | CC(C)Cn1c(-c2cc(F)cc(F)c2F)c(Cl)nc(-n2cncn2)c1=O [compound 138] | – | – | – | – | – | – | – | – | – | – | – | Test H disease control rating (Septoria nodorum; 100 ppm (#)): 0# %; Test K disease control rating ([1]; 100 ppm (#)): 0# %; Test J disease control rating (Septoria tritici; 100 ppm (#)): 46# %; Test E disease control rating (Botrytis cinerea; 100 ppm (#)): 83# %; Test G disease control rating (Rhizoctonia oryzae; 100 ppm (#)): 55# %; Test D disease control rating (Plasmopara viticola; 100 ppm (#)): 12# %; Test L disease control rating ([2]; 100 ppm (#)): 0# %; Test C disease control rating (Sclerotinia sclerotiorum; 100 ppm (#)): 24# %; Test A disease control rating (Pythium aphanidermatum; 100 ppm (#)): 0# %; Test B disease control rating ([3]; 100 ppm (#)): 0# %; Test F disease control rating (Phytophthora infestans; 100 ppm (#)): 0# %
10 | CC(C)Cn1c(-c2ccccc2C(F)(F)F)c(Cl)nc(-n2cncn2)c1=O [compound 140] | 0% | 0% | 41% | 99% | 34% | 12% | 0% | 83% | 0% | 0% | 0% | –
11 | CC(C)Cn1c(-c2ccccc2C(F)(F)F)c(Cl)nc(-n2cccn2)c1=O [compound 141] | 73% | 60% | 99% | 92% | 96% | 12% | 79% | 63% | 0% | 96% | 0% | –
12 | CC(C)Cn1c(-c2ccc(F)cc2)c(Cl)nc(-n2cncn2)c1=O [compound 142] | 100% | 27% | 100% | 100% | 0% | 4% | 81% | 0% | 64% | 16% | 0% | –
13 | CC(C)Cn1c(-c2ccc(F)cc2)c(Cl)nc(-n2cccn2)c1=O [compound 143] | 0% | 68% | 100% | 99% | 47% | 12% | 0% | 0% | 0% | 0% | 0% | –
14 | CC(C)Cn1c(-c2ccc(C#N)cc2)c(Cl)nc(-n2cncn2)c1=O [compound 144] | 0% | 0% | 89% | 0% | 0% | 12% | 0% | 0% | 0% | 0% | 0% | –
15 | CC(C)Cn1c(-c2ccc(C#N)cc2)c(Cl)nc(-n2cccn2)c1=O [compound 145] | 0% | 68% | 100% | 99% | 40% | 20% | 0% | 49% | 0% | 0% | 0% | –
16 | O=c1c(-n2cncn2)nc(Cl)c(-c2c(F)cccc2F)n1-c1ccccc1 [compound 162] | 0% | 27% | 100% | 85% | 47% | 8% | 0% | 0% | 0% | 9% | 0% | –
17 | CCC(C)Cn1c(-c2ccc(F)cc2Cl)c(Cl)nc(-n2cccn2)c1=O (stereo not drawn) [compound 164] | 100% | 100% | 100% | 100% | 74% | 44% | 100% | 91% | 0% | 100% | 0% | –
18 | CC(C)Cn1c(-c2ccccc2F)c(Cl)nc(-n2cccn2)c1=O [compound 174] | – | – | – | – | – | – | – | – | – | – | – | Test H disease control rating (Septoria nodorum; 40 ppm (*)): 99* %; Test K disease control rating ([1]; 40 ppm (*)): 99* %; Test J disease control rating (Septoria tritici; 40 ppm (*)): 100* %; Test E disease control rating (Botrytis cinerea; 40 ppm (*)): 100* %; Test G disease control rating (Rhizoctonia oryzae; 40 ppm (*)): 62* %; Test D disease control rating (Plasmopara viticola; 40 ppm (*)): 15* %; Test L disease control rating ([2]; 40 ppm (*)): 98* %; Test C disease control rating (Sclerotinia sclerotiorum; 40 ppm (*)): 0* %; Test A disease control rating (Pythium aphanidermatum; 40 ppm (*)): 0* %; Test B disease control rating ([3]; 40 ppm (*)): 0* %; Test F disease control rating (Phytophthora infestans; 40 ppm (*)): 0* %
